Like-named read-outs stand apart in the source and are kept apart here. No end group written: not given here.
Tests used:
healthy volunteers = experiment: Allergic skin test (intradermal injection, flare size) in healthy volunteers; assay type: in vivo, human; conditions: for positive skin reaction, number of cases: among 41 or 42 cases of healthy volunteers
Experimental: Therefore, it was investigated whether an allergic reaction to a peptide derived from the above self-antigen would also be observed in healthy volunteers. Skin tests were carried out with respect to self-derived tumor rejection antigen peptides capable of inducing cytotoxic T cells for 42 cases of healthy volunteers whose age ranges from 19 years old to 54 years old (mean age 29.2 years). For testing an allergic skin reaction, 10 μg of each peptide (50 μl volume) was intradermally injected, and evaluation was carried out 15 minutes after the injection. The results are summarized in Tables 1 to 4, wherein ‘NT’ and ‘S. T’ mean ‘not tested’ and ‘skin test’, respectively. −: longest diameter (D) of flare […] +: 10 mm≦D<30 mm ++: 30 mm≦D<50 mm +++: 50 mm≦D

[1] = system: skin reaction and serum IgE level against SART3315; conditions: human, in vivo
Experimental: The phase I clinical test using SART3109 was carried out on a colon cancer patient whose skin reaction against SART3315 was positive. With respect to the patient, a skin reaction against SART3109 was negative, and a specific IgE level in serum against SART3315 and SART3109 was low. […] Although a SART3109-specific IgE level in serum was increased by administration of SART3109, skin reactions before and after administration of the same were negative (FIG. 1F). Namely, an allergic reaction and the specific IgE level in serum against SART3315 were reduced by administration of SART3109.

cancer patients [2] = conditions: human, in vivo
cancer patients [3] = experiment: Skin test by pre-vaccination before phase I clinical trial in cancer patients
[4] = system: skin reaction and serum IgE level against ART413; conditions: human, in vivo
Experimental: The phase I clinical trial with ART475 was carried out on an ovarian cancer patient whose skin reaction against ART413 was positive. With respect to the patient, a skin reaction against ART475 was negative, and a specific IgE level in serum against ART413 and ART475 was low. […] Namely, an allergic reaction and a specific IgE level in serum against ART413 were reduced by administration of ART475.

[5] = system: skin reaction and serum IgE level against CypB84; experiment: Phase I clinical trial of peptide vaccine using CypB91 in lung cancer patient; assay type: in vivo, human
Experimental: The phase I clinical trial of a peptide vaccine using CypB91 was carried out on a lung cancer patient whose skin reaction and serum IgE level against CypB84 were positive in the above allergic skin test. The skin reaction and serum IgE level against CypB91 of the patient were negative. […] A skin reaction and a serum […] level against CypB91 even after 3 times administration of CypB91 were substantially the same as those before administration, i.e., negative (FIG. 1B).

[6] = positive donors / donors tested, healthy volunteers

Substance	positive skin reaction, number of cases (healthy volunteers) [cases]	positive skin reaction, percent of healthy volunteers (healthy volunteers; healthy volunteers) [%]	S. T positive rate (healthy volunteers; [6])	further results
CypB84F-Y: peptide obtained by partially modifying CypB84: phenylalanine (F) at the 2nd position replaced with tyrosine (Y) (KYHRVIKDF; Peptide consisting of 9 amino acid residues from the 84th residue to the 92nd residue of cyclophillin B)	–	–	–	immediate hypersensitivity skin reactions elicited (cancer patients [2]): eight of ten
KFHRVIKDF [CypB84, KFHRVIKDF]	40	95	40/42	immediate hypersensitivity skin reactions elicited (cancer patients [3]; pre-vaccinated lung-cancer patients): eight of ten
DYPSLSATDI [ART475, DYPSLSATDI]	–	–	1/41	ART475-specific IgE level in serum [4]: gradually increased; skin reaction against ART475 [4]: negative
CypB91-2F-Y: peptide obtained by replacing phenylalanine at the 2nd position of CypB91 with tyrosine (DYMIQGGDF; Designed peptide based on the peptide consisting of 9 amino acid residues from the 91st residue to the 99th residue of cyclophillin B)	–	–	–	inhibition of skin reaction and specific IgE level against CypB84, number of cases ([5]; among 10 cases tested, vaccination of CypB91 or CypB91-2F-Y): 9 cases
DFMIQGGDF [CypB91, DFMIQGGDF]	–	–	–	S. T positive rate (healthy volunteers; human, in vivo): 0/42; skin reaction against CypB91 ([5]; after 3 times administration of CypB91): negative
AFLRHAAL [ART413, AFLRHAAL]	–	95	39/41	allergic skin reaction (cancer patients [3]; ovarian cancer patients): elicited an allergic skin reaction

Now from value to substance, other results behind:

positive skin reaction, number of cases (healthy volunteers) [cases]	positive skin reaction, percent of healthy volunteers (healthy volunteers; healthy volunteers) [%]	S. T positive rate (healthy volunteers; [6])	Substance	further results
7	17	7/42	VYDYNCHVDL [SART3109, VYDYNCHVDL]	SART3109-specific IgE level in serum [1]: increased; skin reactions against SART3109 [1]: negative
10	24	10/41	SYTRLFLIL [SART2899, SYTRLFLIL]	–
18	44	18/41	AYIDFEMKI [SART3315, AYIDFEMKI]	–
–	–	0/42	AYDFLYNYL [SART2161, AYDFLYNYL]	S. T (skin test, size of inflammatory flare) (healthy volunteers; individual healthy donors, 10 μg peptide intradermally, evaluated 15 minutes after injection): − (longest diameter (D) of flare <30 mm)
